Tests used:
Type in all cases: in vivo
[1] = system: foxtail, giant (Setaria faberii); assay: Test A pre-/postemergence greenhouse test
Source text: (§1) Seeds of plant species selected from barnyardgrass (Echinochloa crus-galli), kochia (Kochia scoparia), ragweed (common ragweed, Ambrosia elatior), ryegrass, Italian (Lolium multiflorum), foxtail, giant (Setaria faberii), foxtail, green (Setaria viridis) and pigweed (Amaranthus retroflexus) were planted into a blend of loam soil and sand and treated preemergence with a directed soil spray using test chemicals formulated in a non-phytotoxic solvent mixture which included a surfactant.
(§2) At the same time, plants selected from these weed species and also wheat (Triticum aestivum), corn (Zea mays), blackgrass (Alopecurus myosuroides) and galium (catchweed bedstraw, Galium aparine) were planted in pots containing the same blend of loam soil and sand and treated with postemergence applications of test chemicals formulated in the same manner. Plants ranged in height from 2 to 10 cm and were in the one- to two-leaf stage for the postemergence treatment. Treated plants and untreated controls were maintained in a greenhouse for approximately 10 d, after which time all treated plants were compared to untreated controls and visually evaluated for injury. Plant response ratings, summarized in Table A, are based on a 0 to 100 scale where 0 is no effect and 100 is complete control. A dash (-) response means no test result.

[2] = system: surinam grass (Brachiaria decumbens); assay: Test E pre-/postemergence greenhouse test; conditions: Preemergence
Source text: (§3) Seeds of plant species selected from corn (Zea mays), soybean (Glycine max), velvetleaf (Abutilon theophrasti), lambsquarters (Chenopodium album), poinsettia, wild (Euphorbia heterophylla), pigweed, palmer (Amaranthus palmeri), waterhemp (common waterhemp, Amaranthus rudis), surinam grass (Brachiaria decumbens), crabgrass, large (Digitaria sanguinalis), crabgrass, Brazil (Digitaria horizontalis), panicum, fall (Panicum dichotomiflorum), foxtail, giant (Setaria faberii), foxtail, green (Setaria viridis), goosegrass (Eleusine indica), johnsongrass (Sorghum halepense), ragweed (common ragweed, Ambrosia elatior), barnyardgrass (Echinochloa crus-galli), sandbur (southern sandbur, Cenchrus echinatus), arrowleaf sida (Sida rhombifolia), ryegrass, Italian (Lolium multiflorum), dayflower, VA (Virginia (VA) dayflower, Commelina virginica), field bindweed (Convolvulus arvensis), morningglory (Ipomoea coccinea), horseweed (Conyza canadensis), kochia (Kochia scoparia), nutsedge, yellow (Cyperus esculentus) and hairy beggarticks (Bidenspilosa), were planted into a silt loam soil and treated preemergence with test chemicals formulated in a non-phytotoxic solvent mixture which included a surfactant.
(§4) At the same time, plants selected from these crop and weed species and also waterhemp_RES1, (ALS & Triazine resistant common waterhemp, Amaranthus rudis), and waterhemp_RES2, (ALS & HPPD resistant common waterhemp, Amaranthus rudis) were planted in pots containing Redi-Earth® planting medium (Scotts Company, 14111 Scottslawn Road, Marysville, Ohio 43041) comprising spaghnum peat moss, vermiculite, wetting agent and starter nutrients were treated with postemergence applications of test chemicals formulated in the same manner. Plants ranged in height from 2 to 18 cm for postemergence treatments (1- to 4-leaf stage). Treated plants and controls were maintained in a greenhouse for 14 to 21 d, after which time all species were compared to controls and visually evaluated. Plant response ratings, summarized in Table E, are based on a scale of 0 to 100 where 0 is no effect and 100 is complete control. A dash (-) response means no test result.

[3] = system: crabgrass, large (Digitaria sanguinalis); assay: Test E pre-/postemergence greenhouse test; conditions: Preemergence
Source text: as §3, §4

[4] = system: foxtail, giant (Setaria faberii); assay: Test E pre-/postemergence greenhouse test; conditions: Preemergence
Source text: as §3, §4

[5] = system: barnyardgrass (Echinochloa crus-galli); assay: Test E pre-/postemergence greenhouse test; conditions: Preemergence
Source text: as §3, §4

[6] = system: panicum, fall (Panicum dichotomiflorum); assay: Test E pre-/postemergence greenhouse test
Source text: as §3, §4

[7] = system: rice (transplanted and water seeded, Oryza sativa); assay: Test C flooded paddy test; conditions: Flood, scale 0 to 100
Source text: (§5) Plant species in the flooded paddy test consisted of rice (transplanted and water seeded, Oryza sativa), sedge, umbrella (small-flower umbrella sedge, Cyperus difformis), ducksalad (Heteranthera limosa), Bulrush, Japanese (Scirpus juncoides) and barnyardgrass (Echinochloa crus-galli) grown to the 2-leaf stage for testing. At time of treatment, test pots were flooded to 3 cm above the soil surface, treated by application of test compounds directly to the paddy water, and then maintained at that water depth for the duration of the test. Treated plants and controls were maintained in a greenhouse for 13 to 15 d, after which time all species were compared to controls and visually evaluated. Plant response ratings, summarized in Table C are based on a scale of 0 to 100 where 0 is no effect and 100 is complete control. A dash (-) response means no test result.

[8] = system: ducksalad (Heteranthera limosa); assay: Test C flooded paddy test; conditions: Flood, scale 0 to 100
Source text: as §5

[9] = system: barnyardgrass (Echinochloa crus-galli); assay: Test C flooded paddy test; conditions: Flood, scale 0 to 100
Source text: as §5

[10] = system: sedge, umbrella (small-flower umbrella sedge, Cyperus difformis); assay: Test C flooded paddy test; conditions: Flood, scale 0 to 100
Source text: as §5

[11] = system: foxtail, green (Setaria viridis); assay: Test A pre-/postemergence greenhouse test
Source text: as §1, §2

Structure (SMILES): Cc1ccc2ccc(C)c(-c3c(O)c(Cl)nn(C)c3=O)c2c1 [Cpd. No. 20, 6-chloro-4-(2,7-dimethyl-1-naphthalenyl)-5-hydroxy-2-methyl-3(2H)-pyridazinone]
- Plant response rating (0 to 100 scale) ([1]; Postemergence, 31 g ai/ha): 80
- Plant response rating (0 to 100 scale) ([1]; Postemergence, 125 g ai/ha): 100
- Plant response rating (0 to 100 scale) ([1]; Preemergence, 31 g ai/ha): 80
- Plant response rating (0 to 100 scale) ([1]; Preemergence, 125 g ai/ha): 100
- Plant response rating, Surinam Grass ([2]; 16 g ai/ha): 35
- Plant response rating, Surinam Grass ([2]; 31 g ai/ha): 80
- Plant response rating, Surinam Grass ([2]; 62 g ai/ha): 90
- Plant response rating, Surinam Grass ([2]; 125 g ai/ha): 100
- Plant response rating, Crabgrass, Large ([3]; 16 g ai/ha): 65
- Plant response rating, Crabgrass, Large ([3]; 31 g ai/ha): 65
- Plant response rating, Crabgrass, Large ([3]; 62 g ai/ha): 75
- Plant response rating, Crabgrass, Large ([3]; 125 g ai/ha): 80
- Plant response rating, Foxtail, Giant ([4]; 16 g ai/ha): 10
- Plant response rating, Foxtail, Giant ([4]; 31 g ai/ha): 60
- Plant response rating, Foxtail, Giant ([4]; 62 g ai/ha): 90
- Plant response rating, Foxtail, Giant ([4]; 125 g ai/ha): 98
- Plant response rating, Barnyardgrass ([5]; 16 g ai/ha): 0
- Plant response rating, Barnyardgrass ([5]; 31 g ai/ha): 75
- Plant response rating, Barnyardgrass ([5]; 62 g ai/ha): 80
- Plant response rating, Barnyardgrass ([5]; 125 g ai/ha): 100
- Plant response rating, Panicum, Fall ([6]; Postemergence, 16 g ai/ha): 70
- Plant response rating, Panicum, Fall ([6]; Postemergence, 31 g ai/ha): 90
- Plant response rating, Panicum, Fall ([6]; Postemergence, 62 g ai/ha): 90
- Plant response rating, Panicum, Fall ([6]; Postemergence, 125 g ai/ha): 95
- Plant response rating, Panicum, Fall ([6]; Preemergence, 16 g ai/ha): 75
- Plant response rating, Panicum, Fall ([6]; Preemergence, 31 g ai/ha): 98
- Plant response rating, Panicum, Fall ([6]; Preemergence, 62 g ai/ha): 98
- Plant response rating, Panicum, Fall ([6]; Preemergence, 125 g ai/ha): 100
- Plant response rating, Rice, Transplanted ([7]; 31 g ai/ha): 0
- Plant response rating, Rice, Water Seeded ([7]; 31 g ai/ha): 0
- Plant response rating, Rice, Transplanted ([7]; 62 g ai/ha): 0
- Plant response rating, Rice, Water Seeded ([7]; 62 g ai/ha): 0
- Plant response rating, Rice, Transplanted ([7]; 125 g ai/ha): 0
- Plant response rating, Rice, Water Seeded ([7]; 125 g ai/ha): 0
- Plant response rating, Rice, Transplanted ([7]; 250 g ai/ha): 0
- Plant response rating, Rice, Water Seeded ([7]; 250 g ai/ha): 0
- Plant response rating, Ducksalad ([8]; 31 g ai/ha): 0
- Plant response rating, Ducksalad ([8]; 62 g ai/ha): 30
- Plant response rating, Ducksalad ([8]; 125 g ai/ha): 70
- Plant response rating, Ducksalad ([8]; 250 g ai/ha): 85
- Plant response rating, Barnyardgrass ([9]; 31 g ai/ha): 0
- Plant response rating, Barnyardgrass ([9]; 62 g ai/ha): 0
- Plant response rating, Barnyardgrass ([9]; 125 g ai/ha): 0
- Plant response rating, Barnyardgrass ([9]; 250 g ai/ha): 20
- Plant response rating, Sedge, Umbrella ([10]; 31 g ai/ha): 0
- Plant response rating, Sedge, Umbrella ([10]; 62 g ai/ha): 0
- Plant response rating, Sedge, Umbrella ([10]; 125 g ai/ha): 50
- Plant response rating, Sedge, Umbrella ([10]; 250 g ai/ha): 70

Structure (SMILES): Cc1ccc2ccc(Cl)cc2c1-c1c(O)c(Cl)nn(C)c1=O [Cpd. No. 22]
- Plant response rating (0 to 100 scale) ([11]; Postemergence, 31 g ai/ha): 100
- Plant response rating (0 to 100 scale) ([11]; Postemergence, 125 g ai/ha): 100
- Plant response rating (0 to 100 scale) ([11]; Preemergence, 31 g ai/ha): 90
- Plant response rating (0 to 100 scale) ([11]; Preemergence, 125 g ai/ha): 100

From US12435044B2, “Pyridazinone herbicides and pyridazinone intermediates used to prepare a herbicide” (FMC Corporation, priority 2018, dated 2025)
